This note sets out measurements from ChEMBL document CHEMBL3271991, “A series of hexahydro[1,4]oxazino[3,4-a]isoquinolines as potential neuroleptics” (J Med Chem, 1978).

Data set [1] has as its system Vulpes vulpes. The experiment in a line: Neuroleptic activity in wild fox assessed as taming effect at 32 mg/kg, ip. The class given is functional, organism-based. Further details: dose 32 mg/kg.
Data set [2] is described as follows: Toxicity in wild fox assessed as ataxia at 32 mg/kg, ip. Also noted: dose 32 mg/kg, route intraperitoneal. As to conditions: vulpes vulpes, in vivo. The data set is classed as organism-based.
A short description of data set [3]: Toxicity in ip dosed mouse. The class given is organism-based. The note with it: in vivo.
Data set [4] relates to Mus musculus. The data set is described as follows: Neuroleptic activity in ip dosed mouse assessed as blockade of traction reflex by measuring failure to grasp wire with hind paws measured for 5 secs. The data set is classed as functional.
For data set [5], the system named is Gerbillinae. The experiment in a line: Neuroleptic activity in gerbil assessed as escape latency time at 8 mg/kg, ip measured up to 50 mins by sidman avoidance test relative to control. The data set is classed as functional. As to conditions: route intraperitoneal.
Data set [6] concerns Mus musculus. The experiment in a line: Neuroleptic activity in ip dosed mouse assessed as blockade of prehensile reflex by measuring failure to hang measured for 5 secs. The class given is functional.
Data set [7] deals with Gerbillinae. The data set is described as follows: Neuroleptic activity in gerbil assessed as escape latency time at 16 mg/kg, ip measured up to 50 mins by sidman avoidance test relative to control. The data set is classed as functional. The note with it: route intraperitoneal.
Data set [8] relates to Rhesus monkey. The experiment in a line: Toxicity in monkey assessed as ataxia at 16 mg/kg, ip. Also noted: dose 16 mg/kg, route intraperitoneal. The note with it: in vivo. The data set is classed as organism-based, Macaca mulatta.
The nature of data set [9]: Toxicity in po dosed mouse. The data set is classed as organism-based. The note with it: in vivo.
For data set [10], the system named is Gerbillinae. The experiment in a line: Neuroleptic activity in gerbil assessed as escape latency time at 2 mg/kg, ip measured up to 50 mins by sidman avoidance test relative to control. The class given is functional. As to conditions: route intraperitoneal.
Data set [11] in a line: Toxicity in wild fox assessed as ataxia at 16 mg/kg, ip. The data set is classed as organism-based. Also noted: dose 16 mg/kg, route intraperitoneal. As to conditions: vulpes vulpes, in vivo.
Data set [12] relates to Gerbillinae. The data set is described as follows: Neuroleptic activity in ip dosed gerbil up to 50 mins by sidman avoidance test. The data set is classed as functional. As to conditions: read-out: MED.
Data set [13] relates to Gerbillinae. The data set is described as follows: Neuroleptic activity in gerbil assessed as escape latency time at 4 mg/kg, ip measured up to 50 mins by sidman avoidance test relative to control. The class given is functional. The note with it: route intraperitoneal.
The test system of another data set is Felis catus. The data set is described as follows: Induction of muscle relaxant effect in cat at 20 mg/kg, iv. The class given is functional, organism-based. Further details: dose 20 mg/kg.
Data set [14] has as its system Vulpes vulpes. The data set is described as follows: Neuroleptic activity in wild fox assessed as taming effect at 16 mg/kg, ip. The class given is functional, organism-based. Also noted: dose 16 mg/kg.
Data set [15] concerns Rhesus monkey. The experiment in a line: Neuroleptic activity in monkey assessed as taming effect at 16 mg/kg, ip. The data set is classed as functional, organism-based. Also noted: dose 16 mg/kg. As to conditions: Macaca mulatta.
In data set [16] the test system is Mus musculus. The experiment in a line: Neuroleptic activity in ip dosed mouse assessed as blockade of righting reflex by measuring failure to right to normal position measured for 30 secs. The class given is functional.
Data set [17] deals with Mus musculus. The data set is described as follows: Neuroleptic activity in ip dosed mouse assessed as blockade of corneal reflex by measuring failure to blink. As to conditions: Cornea. The data set is classed as functional.
For data set [18], the system named is Mus musculus. The data set is described as follows: Neuroleptic activity in mouse assessed as blockade of corneal reflex by measuring failure to blink at 640 mg/kg, ip. The data set is classed as functional, organism-based. Also noted: dose 640 mg/kg. The note with it: Cornea.
The test system of data set [19] is Mus musculus. The experiment in a line: Neuroleptic activity in mouse assessed as blockade of righting reflex by measuring failure to right to normal position at 640 mg/kg, ip measured for 30 secs. The class given is functional, organism-based. Also noted: dose 640 mg/kg.
The test system of data set [20] is Mus musculus. The experiment in a line: Neuroleptic activity in mouse assessed as blockade of prehensile reflex by measuring failure to hang at 640 mg/kg, ip measured for 5 secs. The data set is classed as functional, organism-based. Further details: dose 640 mg/kg.
The test system of data set [21] is Mus musculus. The data set is described as follows: Neuroleptic activity in mouse assessed as blockade of traction reflex by measuring failure to grasp wire with hind paws at 640 mg/kg, ip measured for 5 secs. The data set is classed as functional, organism-based. Further details: dose 640 mg/kg.
Data set [22] has as its system Gerbillinae. The data set is described as follows: Neuroleptic activity in gerbil assessed as escape latency time at 80 mg/kg, ip measured up to 50 mins by sidman avoidance test relative to control. The data set is classed as functional. As to conditions: route intraperitoneal.
The subject of data set [23] is Gerbillinae. The data set is described as follows: Neuroleptic activity in gerbil assessed as escape latency time at 20 mg/kg, ip measured up to 50 mins by sidman avoidance test relative to control. As to conditions: route intraperitoneal. The class given is functional.
Data set [24] relates to Gerbillinae. The experiment in a line: Neuroleptic activity in gerbil assessed as escape latency time at 40 mg/kg, ip measured up to 50 mins by sidman avoidance test relative to control. The class given is functional. The note with it: route intraperitoneal.
For data set [25], the system named is Gerbillinae. The data set is described as follows: Neuroleptic activity in gerbil assessed as escape latency time at 5 mg/kg, ip measured up to 50 mins by sidman avoidance test relative to control. The class given is functional. The note with it: route intraperitoneal.
Data set [26] relates to Gerbillinae. The data set is described as follows: Neuroleptic activity in gerbil assessed as escape latency time at 2.5 mg/kg, ip measured up to 50 mins by sidman avoidance test relative to control. The data set is classed as functional. As to conditions: route intraperitoneal.
The subject of data set [27] is Gerbillinae. The experiment in a line: Neuroleptic activity in gerbil assessed as escape latency time at 10 mg/kg, ip measured up to 50 mins by sidman avoidance test relative to control. As to conditions: route intraperitoneal. The class given is functional.
For data set [28], the system named is Gerbillinae. The data set is described as follows: Neuroleptic activity in gerbil assessed as escape latency time at 1 mg/kg, ip measured up to 50 mins by sidman avoidance test relative to control. The data set is classed as functional. The note with it: route intraperitoneal.
Data set [29] is described as follows: Toxicity in wild fox assessed as ataxia at 4 mg/kg, ip. The class given is organism-based. Also noted: dose 4 mg/kg, route intraperitoneal. The note with it: vulpes vulpes, in vivo.
Data set [30] has as its system Vulpes vulpes. The data set is described as follows: Neuroleptic activity in wild fox assessed as taming effect at 4 mg/kg, ip. The class given is functional, organism-based. Further details: dose 4 mg/kg.
Data set [31] relates to Gerbillinae. The experiment in a line: Neuroleptic activity in gerbil assessed as escape latency time at 0.5 mg/kg, ip measured up to 50 mins by sidman avoidance test relative to control. The class given is functional. The note with it: route intraperitoneal.
Where [32] appears, read: Mus musculus, ip, read-out: ED50.

The LD50 is the dose at which mortality reaches 50%. One may read the ED50 as the midpoint of the dose-response relation.

The structures appear in SMILES notation. Calls of active or inactive are those of the source. The rule behind the calls is not given here.

As for `CNC1=Nc2ccccc2C(c2ccccc2)=[N+]([O-])C1`, the outcome in the data set on Vulpes vulpes [1] was Active. Besides, the Activity result in data set [2] is given as “Non-toxic”.

For the molecule `CCN(CC)C(=O)[C@H]1CN2CCc3cc(OC)c(OC)cc3[C@H]2CO1.Cl` (racemic), the LD50 in data set [3] was found to be 1100 mg/kg; in data set [9], 1400 mg/kg. For the same molecule, the ED50 was 100 mg/kg in the data set with Mus musculus [4] (setting [32]) and 400 mg/kg with Mus musculus [6] (setting [32]). Also, the Time with Gerbillinae [5] stood at 0.5 s; with Gerbillinae [7] it was 0.8 s; with Gerbillinae [10], 0.6 s; in the data set with Gerbillinae [13], 0.8 s. The Activity result (with Rhesus monkey [8]; in data set [11]) was “Non-toxic” throughout. For the same molecule, the minimal effective dose with Gerbillinae [12] was 25 mg/kg.

For `CCN(CC)C(=O)[C@H]1CN2CCc3cc(OC)c(OC)cc3[C@H]2CO1` (racemic), the result in the data set on Felis catus, in the data set with Vulpes vulpes [14] and with Rhesus monkey [15] was Active.

As to `COc1cc2c(cc1OC)[C@H]1CO[C@H](C#N)CN1CC2` (relative stereo), the ED50 in the data set with Mus musculus [4] (setting [32]) is 180 mg/kg; in the data set with Mus musculus [6] (setting [32]) it was over 640 mg/kg.

Turning to `CCN(CC)C(=O)[C@H]1CN2CCc3cc(OC)c(OC)cc3[C@H]2CO1` (relative stereo), the figures for the ED50 in the data set on Mus musculus [4] (setting [32]) and in the data set with Mus musculus [6] (setting [32]) were 110 mg/kg and 500 mg/kg, respectively.

For the molecule `COc1cc2c(cc1OC)[C@H]1CO[C@@H](C(=O)N3CCCC3)CN1CC2` (relative stereo), the ED50 was 180 mg/kg in the data set on Mus musculus [4] (setting [32]) and over 640 mg/kg in the data set on Mus musculus [6] (setting [32]).

In the case of `COc1cc2c(cc1OC)[C@H]1CO[C@@H](C(=O)N3CCCCC3)CN1CC2` (relative stereo), the ED50 in the data set on Mus musculus [4] (setting [32]) was found to be 180 mg/kg; with Mus musculus [6] (setting [32]) it was 280 mg/kg; in the data set on Mus musculus [16] it was 280 mg/kg; with Mus musculus [17], 450 mg/kg.

For `COc1cc2c(cc1OC)[C@H]1CO[C@@H](C(=O)N3CCOCC3)CN1CC2` (relative stereo), the 50% effective dose (ED50) in the data set with Mus musculus [4] (setting [32]) is 200 mg/kg; with Mus musculus [6] (setting [32]) it was over 640 mg/kg.

Consider `CCOC(=O)[C@H]1CN2CCc3cc(OC)c(OC)cc3[C@H]2CO1` (relative stereo), for which the result in the data set with Mus musculus [18], in the data set with Mus musculus [19], with Mus musculus [20] and with Mus musculus [21] was inactive.

In the case of `CCN(CC)C(=O)C1CN2CCc3cc(OC)c(OC)cc3C2CO1` (stereo in doubt; 19), the ED50 in the data set with Mus musculus [4] (setting [32]) came to 125 mg/kg; in the data set on Mus musculus [6] (setting [32]), 400 mg/kg. Besides, the Time in the data set on Gerbillinae [22] is listed as 2.2 s; in the data set on Gerbillinae [23], 0.5 s; in the data set with Gerbillinae [24], 1.2 s.

Regarding `CCN(CC)C(=O)C1CN2CCc3cc(OC)c(OC)cc3C2CO1` (stereo in doubt; 20), the ED50 was 150 mg/kg in the data set with Mus musculus [4] and 460 mg/kg in the data set with Mus musculus [6]. Also, the Time in the data set on Gerbillinae [25] worked out at 0.6 s; in the data set with Gerbillinae [23], 2.4 s; with Gerbillinae [26], 0.5 s; in the data set with Gerbillinae [27], 1.2 s.

`CN(C)CCCN1c2ccccc2Sc2ccc(Cl)cc21` [CHLORPROMAZINE]: the ED50 with Mus musculus [4] (setting [32]) was found to be 6 mg/kg; in the data set on Mus musculus [6] (setting [32]) it was 74 mg/kg; in the data set with Mus musculus [16] it was 115 mg/kg; in the data set on Mus musculus [17], 160 mg/kg. For the same molecule, the Time in the data set with Gerbillinae [28] is on record as 1.1 s; in the data set on Gerbillinae [10], 0.8 s; with Gerbillinae [31], 1 s. The Activity result in data set [29] is “Non-toxic”. Further, the outcome in the data set on Vulpes vulpes [30] was Active.

On to `CCCC(C)(COC(N)=O)COC(N)=O` [MEPROBAMATE], for which the ED50 in the data set on Mus musculus [4] (setting [32]) is 160 mg/kg; in the data set on Mus musculus [6] (setting [32]), 225 mg/kg; in the data set on Mus musculus [16], 320 mg/kg; with Mus musculus [17], 400 mg/kg.

With `CCC1(c2ccccc2)C(=O)NC(=O)NC1=O` [PHENOBARBITAL], the ED50 was 64 mg/kg with Mus musculus [4] (setting [32]), 82 mg/kg with Mus musculus [6] (setting [32]), 140 mg/kg in the data set with Mus musculus [16] and 100 mg/kg with Mus musculus [17].
